ChEMBL document CHEMBL4364276, “Discovery of 4-phenyl-2H-benzo[b][1,4]oxazin-3(4H)-one derivatives as potent and orally active PI3K/mTOR dual inhibitors” (Eur J Med Chem, 2019)

What was measured:
[1] = molecular target: Tyrosine-protein kinase Fyn (Homo sapiens) (UniProt P06241); test: Inhibition of human FYN at 100 nM using poly[Glu:Tyr] (4:1) as substrate by [gamma-33P]-ATP assay
[2] = molecular target: Testis-specific serine/threonine-protein kinase 6 (Homo sapiens) (UniProt Q9BXA6); test: Inhibition of human SSTK at 100 nM using MBP as substrate by [gamma-33P]-ATP assay
Testis-specific serine/threonine-protein kinase 6 (Homo sapiens), sequence (Q9BXA6 whole entry): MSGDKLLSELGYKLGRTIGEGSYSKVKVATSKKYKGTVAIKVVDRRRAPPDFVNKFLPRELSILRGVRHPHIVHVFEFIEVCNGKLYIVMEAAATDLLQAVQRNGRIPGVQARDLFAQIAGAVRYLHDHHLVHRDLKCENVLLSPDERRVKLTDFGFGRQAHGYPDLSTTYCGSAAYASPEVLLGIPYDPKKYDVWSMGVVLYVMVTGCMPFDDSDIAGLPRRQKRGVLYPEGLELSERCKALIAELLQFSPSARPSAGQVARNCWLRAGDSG

[3] = molecular target: Serine/threonine-protein kinase Chk2 (Homo sapiens) (UniProt O96017); test: Inhibition of human CHK2 at 100 nM using KKKVSRSGLYRSPSMPENLNRPR as substrate by [gamma-33P]-ATP assay
[4] = molecular target: Serine/threonine-protein kinase 32C (Homo sapiens) (UniProt Q86UX6); test: Inhibition of human STK32C at 100 nM using MBP as substrate by [gamma-33P]-ATP assay
Serine/threonine-protein kinase 32C (Homo sapiens), sequence (Q86UX6 whole entry): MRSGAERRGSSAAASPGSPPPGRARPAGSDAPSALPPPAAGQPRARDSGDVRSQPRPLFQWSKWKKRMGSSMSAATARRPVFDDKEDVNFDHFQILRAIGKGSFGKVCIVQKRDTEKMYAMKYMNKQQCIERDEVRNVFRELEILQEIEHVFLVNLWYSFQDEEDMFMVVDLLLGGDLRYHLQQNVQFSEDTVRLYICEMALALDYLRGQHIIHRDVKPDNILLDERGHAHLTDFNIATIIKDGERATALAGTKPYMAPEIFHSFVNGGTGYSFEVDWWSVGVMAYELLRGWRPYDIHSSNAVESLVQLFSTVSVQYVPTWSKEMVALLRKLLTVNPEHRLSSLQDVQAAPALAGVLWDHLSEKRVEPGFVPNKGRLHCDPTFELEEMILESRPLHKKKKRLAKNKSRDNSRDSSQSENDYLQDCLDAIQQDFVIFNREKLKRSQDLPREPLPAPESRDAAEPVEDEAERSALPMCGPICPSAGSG

[5] = molecular target: G protein-coupled receptor kinase 4 (Homo sapiens) (UniProt P32298); test: Inhibition of human GRK4 at 100 nM using casein as substrate by [gamma-33P]-ATP assay
[6] = molecular target: MAP kinase-activated protein kinase 3 (Homo sapiens) (UniProt Q16644); test: Inhibition of human MAPKAPK3 at 100 nM using KKLNRTLSVA as substrate by [gamma-33P]-ATP assay
[7] = molecular target: SRSF protein kinase 3 (Homo sapiens) (UniProt Q9UPE1); test: Inhibition of human MSSK1 at 100 nM using GRSRSRSRSR as substrate by [gamma-33P]-ATP assay
[8] = molecular target: Serine/threonine-protein kinase Chk1 (Homo sapiens) (UniProt O14757); test: Inhibition of human CHK1 at 100 nM using KKKVSRSGLYRSPSMPENLNRPR as substrate by [gamma-33P]-ATP assay
[9] = molecular target: Aurora kinase A (Homo sapiens) (UniProt O14965); test: Inhibition of human Aurora A at 100 nM using [H-LRRASLG] as substrate by [gamma-33P]-ATP assay
[10] = molecular target: CDK9/cyclin T1 (Homo sapiens) (UniProt O60563+P50750); test: Inhibition of human CDK9/cyclin-T1 at 100 nM using KTFCGTPEYLAPEVRREPRILSEEEQEMFRDFDYIADWC as substrate by [gamma-33P]-ATP assay; format: protein-complex assay
[11] = molecular target: Ribosomal protein S6 kinase alpha-1 (Homo sapiens) (UniProt Q15418); test: Inhibition of human RSK1 at 100 nM using KKLNRTLSVA as substrate by [gamma-33P]-ATP assay
[12] = molecular target: Serine/threonine-protein kinase tousled-like 2 (Homo sapiens) (UniProt Q86UE8); test: Inhibition of human TLK2 at 100 nM using casein as substrate by [gamma-33P]-ATP assay
[13] = molecular target: Serine/threonine-protein kinase BRSK2 (Homo sapiens) (UniProt Q8IWQ3); test: Inhibition of human BRSK2 at 100 nM using KKLNRTLSFAEPG as substrate by [gamma-33P]-ATP assay
[14] = molecular target: Transient receptor potential cation channel subfamily M member 7 (Homo sapiens) (UniProt Q96QT4); test: Inhibition of human TRPM7 at 100 nM using MBP as substrate by [gamma-33P]-ATP assay
[15] = molecular target: Cyclin-dependent kinase 1/cyclin B1 (Homo sapiens) (UniProt P06493+P14635); test: Inhibition of human CDK1/cyclinB at 100 nM using Histone H1 as substrate by [gamma-33P]-ATP assay; format: protein-complex assay
Cyclin-dependent kinase 1/cyclin B1 (Homo sapiens), sequence (P06493 whole entry, looked up): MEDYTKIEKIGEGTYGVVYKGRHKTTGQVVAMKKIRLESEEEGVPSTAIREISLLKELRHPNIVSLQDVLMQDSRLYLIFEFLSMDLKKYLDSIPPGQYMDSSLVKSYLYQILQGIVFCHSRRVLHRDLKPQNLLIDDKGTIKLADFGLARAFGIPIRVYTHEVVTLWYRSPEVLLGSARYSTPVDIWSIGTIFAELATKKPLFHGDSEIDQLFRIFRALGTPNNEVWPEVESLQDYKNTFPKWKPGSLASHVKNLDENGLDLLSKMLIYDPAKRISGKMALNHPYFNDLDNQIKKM
Cyclin-dependent kinase 1/cyclin B1 (Homo sapiens), sequence (P14635 whole entry, looked up): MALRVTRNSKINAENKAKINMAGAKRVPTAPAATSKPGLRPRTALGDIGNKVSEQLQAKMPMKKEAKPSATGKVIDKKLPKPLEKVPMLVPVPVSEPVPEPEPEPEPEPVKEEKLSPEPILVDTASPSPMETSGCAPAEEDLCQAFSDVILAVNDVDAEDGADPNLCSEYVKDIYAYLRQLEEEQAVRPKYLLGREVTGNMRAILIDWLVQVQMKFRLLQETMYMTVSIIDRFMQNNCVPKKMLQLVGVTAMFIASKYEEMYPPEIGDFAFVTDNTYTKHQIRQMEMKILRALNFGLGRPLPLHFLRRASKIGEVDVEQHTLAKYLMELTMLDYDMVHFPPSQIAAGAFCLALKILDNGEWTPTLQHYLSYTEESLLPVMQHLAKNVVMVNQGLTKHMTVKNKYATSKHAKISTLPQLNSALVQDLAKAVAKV

[16] = molecular target: Serine/threonine-protein kinase D2 (Homo sapiens) (UniProt Q9BZL6); test: Inhibition of human PKD2 at 100 nM using KKLNRTLSVA as substrate by [gamma-33P]-ATP assay
Serine/threonine-protein kinase D2 (Homo sapiens), sequence (Q9BZL6 whole entry): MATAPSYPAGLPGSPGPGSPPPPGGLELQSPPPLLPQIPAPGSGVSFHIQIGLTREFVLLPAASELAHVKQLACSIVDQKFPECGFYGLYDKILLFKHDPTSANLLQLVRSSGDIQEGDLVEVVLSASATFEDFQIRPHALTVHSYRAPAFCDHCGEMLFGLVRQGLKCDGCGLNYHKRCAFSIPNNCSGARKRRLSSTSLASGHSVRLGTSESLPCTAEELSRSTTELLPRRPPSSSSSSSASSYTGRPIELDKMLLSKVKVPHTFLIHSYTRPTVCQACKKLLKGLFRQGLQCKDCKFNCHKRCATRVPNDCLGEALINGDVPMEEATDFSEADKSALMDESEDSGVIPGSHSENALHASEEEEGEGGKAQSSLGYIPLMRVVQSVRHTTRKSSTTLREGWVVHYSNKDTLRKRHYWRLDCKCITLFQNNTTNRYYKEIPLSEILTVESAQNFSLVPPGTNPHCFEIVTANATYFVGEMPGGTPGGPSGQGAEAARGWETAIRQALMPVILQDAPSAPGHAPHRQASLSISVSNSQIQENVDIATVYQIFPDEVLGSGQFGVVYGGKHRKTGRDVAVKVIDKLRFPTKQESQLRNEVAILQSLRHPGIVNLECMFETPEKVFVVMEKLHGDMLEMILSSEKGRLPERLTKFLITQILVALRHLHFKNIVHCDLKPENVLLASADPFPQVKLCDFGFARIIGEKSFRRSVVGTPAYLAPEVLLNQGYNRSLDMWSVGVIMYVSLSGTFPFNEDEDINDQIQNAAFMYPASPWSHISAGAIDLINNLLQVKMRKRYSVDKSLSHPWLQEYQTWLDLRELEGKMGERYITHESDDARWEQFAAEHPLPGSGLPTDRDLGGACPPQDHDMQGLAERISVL

[17] = molecular target: Receptor tyrosine-protein kinase erbB-2 (Homo sapiens) (UniProt P04626); test: Inhibition of human ERBB2 at 100 nM using poly[Glu:Tyr] (4:1) as substrate by [gamma-33P]-ATP assay
[18] = Cmax in Sprague-Dawley rat at 10 mg/kg, po measured upto 24 hrs by LC-MS/MS analysis; format: ADME, organism-based; design: dose 10 mg/kg, route oral; details: in vivo
[19] = molecular target: Tyrosine-protein kinase Lck (Homo sapiens) (UniProt P06239); test: Inhibition of human LCK at 100 nM using poly[Glu:Tyr] (4:1) as substrate by [gamma-33P]-ATP assay
Tyrosine-protein kinase Lck (Homo sapiens), sequence (P06239 2-509 limits assumed): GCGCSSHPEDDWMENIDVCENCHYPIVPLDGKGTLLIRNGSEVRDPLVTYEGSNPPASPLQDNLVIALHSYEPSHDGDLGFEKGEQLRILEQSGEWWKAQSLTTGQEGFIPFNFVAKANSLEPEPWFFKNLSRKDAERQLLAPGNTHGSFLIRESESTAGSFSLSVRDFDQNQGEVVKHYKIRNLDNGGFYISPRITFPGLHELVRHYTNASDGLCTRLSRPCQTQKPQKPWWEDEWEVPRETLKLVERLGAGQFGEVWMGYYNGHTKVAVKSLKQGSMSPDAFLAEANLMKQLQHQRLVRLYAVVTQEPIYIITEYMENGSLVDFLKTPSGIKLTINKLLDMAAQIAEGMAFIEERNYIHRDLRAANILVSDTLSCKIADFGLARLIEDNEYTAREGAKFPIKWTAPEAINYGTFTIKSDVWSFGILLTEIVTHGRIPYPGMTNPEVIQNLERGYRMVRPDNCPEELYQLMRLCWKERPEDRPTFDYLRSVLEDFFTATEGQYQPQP

[20] = molecular target: Mitogen-activated protein kinase kinase kinase kinase 4 (Homo sapiens) (UniProt O95819); test: Inhibition of human HGK at 100 nM using MBP as substrate by [gamma-33P]-ATP assay
Mitogen-activated protein kinase kinase kinase kinase 4 (Homo sapiens), sequence (O95819 2-1239 limits assumed): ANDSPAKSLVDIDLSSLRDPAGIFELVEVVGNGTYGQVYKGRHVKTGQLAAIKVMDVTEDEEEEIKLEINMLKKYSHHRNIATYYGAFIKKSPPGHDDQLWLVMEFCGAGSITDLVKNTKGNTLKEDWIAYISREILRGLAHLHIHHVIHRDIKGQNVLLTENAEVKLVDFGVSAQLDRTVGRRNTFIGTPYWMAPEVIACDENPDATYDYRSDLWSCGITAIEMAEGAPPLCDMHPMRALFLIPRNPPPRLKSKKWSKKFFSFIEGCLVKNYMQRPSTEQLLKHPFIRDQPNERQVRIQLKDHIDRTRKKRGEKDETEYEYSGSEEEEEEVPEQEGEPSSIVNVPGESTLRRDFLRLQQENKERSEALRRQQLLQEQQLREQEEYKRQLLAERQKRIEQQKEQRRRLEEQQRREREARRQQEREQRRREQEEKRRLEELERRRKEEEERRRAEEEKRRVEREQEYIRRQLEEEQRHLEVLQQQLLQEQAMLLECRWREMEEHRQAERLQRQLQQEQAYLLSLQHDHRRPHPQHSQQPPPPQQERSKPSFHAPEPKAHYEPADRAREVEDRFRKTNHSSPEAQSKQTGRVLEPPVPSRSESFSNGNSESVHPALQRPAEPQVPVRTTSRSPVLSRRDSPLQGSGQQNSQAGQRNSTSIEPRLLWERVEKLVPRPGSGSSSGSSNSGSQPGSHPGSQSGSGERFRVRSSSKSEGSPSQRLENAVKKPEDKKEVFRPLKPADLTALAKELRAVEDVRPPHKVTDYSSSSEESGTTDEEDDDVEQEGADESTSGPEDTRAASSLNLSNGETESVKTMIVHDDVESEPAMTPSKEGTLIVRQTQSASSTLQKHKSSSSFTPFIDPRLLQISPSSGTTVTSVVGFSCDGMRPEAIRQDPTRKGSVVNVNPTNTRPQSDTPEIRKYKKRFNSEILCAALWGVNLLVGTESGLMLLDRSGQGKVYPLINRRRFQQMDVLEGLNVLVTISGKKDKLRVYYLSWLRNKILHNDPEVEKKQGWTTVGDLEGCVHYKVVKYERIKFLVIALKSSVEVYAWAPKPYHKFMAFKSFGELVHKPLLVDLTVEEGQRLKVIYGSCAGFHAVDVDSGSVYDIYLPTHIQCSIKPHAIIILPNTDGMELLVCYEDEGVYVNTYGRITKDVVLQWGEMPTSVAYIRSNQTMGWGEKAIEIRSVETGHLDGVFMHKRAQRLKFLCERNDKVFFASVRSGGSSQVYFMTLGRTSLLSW

[21] = molecular target: Tyrosine-protein kinase Lyn (Homo sapiens) (UniProt P07948); test: Inhibition of human LYN-B at 100 nM using poly[Glu:Tyr] (4:1) as substrate by [gamma-33P]-ATP assay
Tyrosine-protein kinase Lyn (Homo sapiens), sequence (P07948 2-512 limits assumed): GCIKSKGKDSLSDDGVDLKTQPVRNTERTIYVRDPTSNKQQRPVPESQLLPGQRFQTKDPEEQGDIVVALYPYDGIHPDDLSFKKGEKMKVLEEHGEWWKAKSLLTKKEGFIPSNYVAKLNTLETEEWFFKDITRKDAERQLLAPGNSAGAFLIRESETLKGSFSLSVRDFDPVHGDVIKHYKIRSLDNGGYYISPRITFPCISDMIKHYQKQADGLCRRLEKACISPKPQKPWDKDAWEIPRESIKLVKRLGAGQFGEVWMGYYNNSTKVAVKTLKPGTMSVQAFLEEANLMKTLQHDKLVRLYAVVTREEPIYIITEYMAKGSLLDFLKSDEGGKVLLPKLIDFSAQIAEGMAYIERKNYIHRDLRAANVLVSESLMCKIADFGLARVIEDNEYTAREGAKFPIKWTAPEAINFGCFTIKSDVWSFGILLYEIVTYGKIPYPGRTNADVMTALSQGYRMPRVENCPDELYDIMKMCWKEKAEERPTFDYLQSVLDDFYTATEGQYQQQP

MCF7 = test: cells; details: Homo sapiens, MCF7, 72 h
[22] = molecular target: Serine/threonine-protein kinase SIK3 (Homo sapiens) (UniProt Q9Y2K2); test: Inhibition of human SIK3 at 100 nM using AMARAASAAALARRR as substrate by [gamma-33P]-ATP assay
Homo sapiens = species: Homo sapiens; test: Inhibition of human AMPK (A2/B2/G3) at 100 nM using HMRSAMSGLHLVKRR as substrate by [gamma-33P]-ATP assay
[23] = molecular target: Protein kinase C zeta type (Homo sapiens) (UniProt Q05513); test: Inhibition of human PKCzeta at 100 nM using ERMRPRKRQGSVRRRV as substrate by [gamma-33P]-ATP assay
[24] = molecular target: Serine/threonine-protein kinase Nek6 (Homo sapiens) (UniProt Q9HC98); test: Inhibition of human NEK6 at 100 nM using casein as substrate by [gamma-33P]-ATP assay
[25] = molecular target: Myosin light chain kinase family member 4 (Homo sapiens) (UniProt Q86YV6); test: Inhibition of human MYLK4 at 100 nM using KKRPQRRYSNVF as substrate by [gamma-33P]-ATP assay
Myosin light chain kinase family member 4 (Homo sapiens), sequence (Q86YV6 whole entry): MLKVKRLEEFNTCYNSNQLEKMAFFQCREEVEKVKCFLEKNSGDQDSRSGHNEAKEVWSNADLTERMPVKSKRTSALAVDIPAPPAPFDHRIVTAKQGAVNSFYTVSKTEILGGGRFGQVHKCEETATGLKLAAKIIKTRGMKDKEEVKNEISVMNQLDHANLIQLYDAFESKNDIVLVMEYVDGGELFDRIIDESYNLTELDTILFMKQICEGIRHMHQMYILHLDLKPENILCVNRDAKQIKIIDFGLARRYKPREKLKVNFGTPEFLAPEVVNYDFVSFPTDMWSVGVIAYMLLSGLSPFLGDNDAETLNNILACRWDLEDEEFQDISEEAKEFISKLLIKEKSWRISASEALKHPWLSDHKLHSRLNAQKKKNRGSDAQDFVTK

[26] = molecular target: Dual specificity tyrosine-phosphorylation-regulated kinase 1B (Homo sapiens) (UniProt Q9Y463); test: Inhibition of human DYRK1B at 100 nM using RRRFRPASPLRGPPK as substrate by [gamma-33P]-ATP assay
[27] = Inhibition of PI3K/Akt/mTOR signaling in human HeLa cells assessed as reduction in AKT 308 phosphorylation incubated for 24 hrs by Western blot analysis; format: cell-based
[28] = molecular target: ALK tyrosine kinase receptor (Homo sapiens) (UniProt Q9UM73); test: Inhibition of human ALK at 100 nM using poly[Glu:Tyr] (4:1) as substrate by [gamma-33P]-ATP assay
[29] = molecular target: Phosphorylase b kinase gamma catalytic chain, liver/testis isoform (Homo sapiens) (UniProt P15735); test: Inhibition of human PHKgamma2 at 100 nM using MBP as substrate by [gamma-33P]-ATP assay

SMILES: COc1ccc(N2C(=O)COc3ccc(-c4cnc(OC)c(NS(=O)(=O)c5ccc(F)cc5)c4)cc32)cc1
- inhibition [1]: -0.86%
- inhibition [2]: 2.2%
- inhibition [3]: 6.04%
- inhibition [4]: -6.39%
- inhibition [5]: 1.46%
- inhibition [6]: 12.8%
- inhibition [7]: 8.87%
- inhibition [8]: 5.54%
- inhibition [9]: 3.17%
- inhibition [10]: 16.8%
- inhibition [11]: 10.8%
- inhibition [12]: -7.96%
- inhibition [13]: -1.64%
- inhibition [14]: 1.61%
- inhibition [15]: -2.84%
- inhibition [16]: -3.61%
- inhibition [17]: 3.37%
- Cmax [18]: 887 ng/mL
- inhibition [19]: 16%
- inhibition [20]: 19.4%
- inhibition [21]: 4.9%
- IC50 (MCF7): 8.26 µM
- inhibition [22]: 8.49%
- inhibition (Homo sapiens): 5.47%
- inhibition [23]: 8.59%
- inhibition [24]: -2.82%
- inhibition [25]: 7.06%
- inhibition [26]: 18.8%
- inhibition [27]: Dose-dependent effect
- inhibition [28]: 2.94%
- inhibition [29]: 20%
